How the values were obtained:
[1] = at 25° C.; cited from earlier work
[2] = Solubility of organic phase solvents in water or poly(ortho ester) polymer
HEK-293 cells = assay: In vitro cytotoxicity, MTT assay; conditions: 1% Triton-X 100, 80 μM H2O2, 48 h
Method: The amount of lactic acid release was quantified by using lactate assay kit (BioVision Inc., Milpitas, Calif.) following manufacturer's specifications. […] Forty microliters of MTT reagent (5 mg/ml in phosphate buffered saline) was added to each well. After 2 h of incubation at 37° C., 200 μl of dimethylsulfoxide (DMSO) was added to each well to dissolve the formazan crystals. After 5 minutes, the optical absorbance was measured at 570 nm and converted to percent viability relative to control (untreated) cells. All samples were tested in quadruplicate.
One hundred microliters of diluted nanoparticles (0.1, 0.2, 0.3, 0.4, 0.5, 0.6, and 1 mg/ml) stock solution was added to each well and incubated with the cells for 48 h, and then replaced with growth medium (160 μl). MTT reagent (40 μl) was added to each well to form formazan. After 2 h of incubation at 37° C., 200 μl of dimethylsulfoxide (DMSO) was added to each well to dissolve the formazan crystals. After 5 m optical absorbance was measured at 570 nm and converted to percent viability relative to control (untreated) cells (n=4).

Xenopus laevis frogs = assay: Effective dose in in vitro studies using frogs

ClCCl [Dichloromethane]
Solubility in water [1]: Immiscible (1.6% (w/w)
Solubility of POE (poly(ortho ester) polymer) in the organic phase solvent [2]: Excellent solvent

OO [H2O2]
Cell viability of positive controls (HEK-293 cells): 8%

asialo, galactosylated, triantennary (NA3) oligosaccharides
Effective dose in vitro (Xenopus laevis frogs): 1 nM

CCOC(C)=O [Ethyl acetate]
Solubility in water [1]: (8.7% (w/w)

Triton-X 100
Cell viability of positive controls (HEK-293 cells): 5%

CC(C)=O [Acetone]
Solubility in water [1]: Very soluble
Solubility of POE (poly(ortho ester) polymer) in the organic phase solvent [2]: Immiscible

Reference: patent publication US9149426B2, “Nanoparticle composition and methods to make and use the same” (priority 2012, dated 2015)
